The values below come from patent US9890147B2 (BAYER PHARMA AKTIENGESELLSCHAFT, priority 2012, dated 2018).

In one assay the target is T1, BRD4 (BD1) (Homo sapiens, UniProt O60885).
T1 construct: with relatively long constructs also being possible, preferably amino acids 44-168; made in house; host or cells: E. coli
Put plainly: Binding assay BRD4/acetylated peptide H4 (TR-FRET protein-protein interaction assay). An outline of the steps:
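Displacement of biotin-Ac-H4 peptide from His6-tagged BRD4(BD1), final usually 10 nM, read as Eu-streptavidin to anti-His-XL665 TR-FRET (665/620 nm). Compounds tested at 11 doses up to 20 μM in duplicate, pH 7.5 HEPES, 22 °C then 4 °C incubation; IC50 by 4-parameter regression.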
On the technique in general: In TR-FRET formats the signal depends on donor and acceptor labels being close together.

The next assay concerns MOLM-13 cells. Briefly: Cell proliferation assay (alamarBlue), MOLM-13. The class given is cell-based. Particulars: Homo sapiens, 96 hours incubation, inhibition of cell proliferation. The gist of the method:
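IC50 = concentration giving 50% growth inhibition relative to buffer-treated cells, after subtracting baseline fluorescence taken before dosing. Compound applied at 1E-5 to 1E-8 M for 96 h at 37 °C in RPMI1640 with 10% FCS; alamarBlue signal at 530/590 nm.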

A further assay has as its system MV4-11 cells. Briefly: Cell proliferation assay (alamarBlue), MV4-11. The class given is cell-based. Particulars: Homo sapiens, 72 hours incubation, inhibition of cell proliferation. As to the method: (§1) In accordance with the invention, the capability of the substances to inhibit cell proliferation was determined Cell viability was determined using the alamarBlue® reagent (Invitrogen) in a Victor X3 Multilabel Reader (Perkin Elmer). The excitation wavelength was 530 nm and the emission wavelenth […].
The MV4-11 cells (ATCC, CRL 9591) were sown at a concentration of 5000 cells/well in 100 μl growth medium (RPMI1640, 10% FCS) on 96-well microtitre plates.
(§2) After an overnight incubation at 37° C., the fluorescence values (CI values) were determined. The plates were then treated with various substance dilutions (1E-5 M, 3E-6 M, 1E-6M, 3E-7 M, 1E-7 M, 3E-8 M, 1E-8 M) and incubated at 37° C. for 72 (MV4-11-, LOX-IMVI cells), 96 (MOLM-13-, B16F10-, MDA-MB-431-, Caov-3 cells), 120 (MOLP-8-, KMS-12-PE cells) or 168 (LAPC-4 cells) hours. The fluorescence values (CO values) were then determined. For the data analysis, the CI values were subtracted from the CO values and the results were compared between cells treated with different dilutions of the substance or with buffer solution only. These were used to calculate the IC 50 values (substance concentration required for 50% inhibition of cell proliferation).
For orientation: Alamar Blue is a resazurin reagent that responds to reducing activity.

A further assay concerns LOX-IMVI cells. Briefly: Cell proliferation assay (alamarBlue), LOX-IMVI. Particulars: Homo sapiens, 72 hours incubation, inhibition of cell proliferation. The class given is cell-based. The method, then:
as §1
The LOX-IMVI cells (NCI-60) were sown at a concentration of 1000 cells/well in 100 μl growth medium (RPMI1640, 10% FCS) on 96-well microtitre plates.
as §2

The next assay relates to MOLP-8 cells. Put plainly: Cell proliferation assay (alamarBlue), MOLP-8. The class given is cell-based. Particulars: Homo sapiens, 120 hours incubation, inhibition of cell proliferation. The method, then:
as §1
The MOLP-8 cells (DSMZ, ACC 569) were sown at a concentration of 4000 cells/well in 100 μl growth medium (RPMI1640, 20% FCS) on 96-well microtitre plates.
as §2

In a further assay the test system is KMS-12-PE cells. Briefly: Cell proliferation assay (alamarBlue), KMS-12-PE. It is filed as cell-based. The following applies: Homo sapiens, 120 hours incubation, inhibition of cell proliferation. As to the method: as §1
The KMS-12-PE cells (DSMZ, ACC 606) were sown at a concentration of 4000 cells/well in 100 μl growth medium (RPMI1640, 20% FCS) on 96-well microtitre plates.
as §2

For another assay, the system named is Caov-3 cells. Briefly: Cell proliferation assay (alamarBlue), Caov-3. The following applies: Homo sapiens; inhibition of cell proliferation, Caov-3 (ovarian carcinoma), 96 hours. It is filed as cell-based. The method, then:
as §1
The MDA-MB-231 cells (DSMZ, ACC 732) were sown at a concentration of 4000 cells/well in 100 μl growth medium (DMEM/Ham's F12 medium, 10% FCS) on 96-well microtitre plates. The Caov-3 cells (ATCC, HTB-75) were sown at a concentration of 2000 cells/well in 100 μl growth medium (MEM Earle's medium, 10% FCS) on 96-well microtitre plates.
as §2

Regarding `CNC(=O)N1N=C(c2ccc(-c3sc(C)nc3C)cc2)c2cc(OC)c(OC)cc2CC1C` (racemic) [Example 46, (±)-1-[4-(2,4-dimethylthiazol-5-yl)phenyl]-7,8-dimethoxy-N,4-dimethyl-4,5-dihydro-3H-2,3-benzodiazepine-3-carboxamide], the 50% inhibitory concentration (IC50) (usually the midpoint of a concentration-inhibition curve) on BRD4 (BD1) came to 30 nM; with MOLM-13 cells, 190 nM; in the assay with MV4-11 cells, 110 nM; in the assay with LOX-IMVI cells, 370 nM; in the assay with MOLP-8 cells, 160 nM; in the assay with KMS-12-PE cells, 120 nM. This molecule also yielded a half-maximal inhibitory concentration (IC50) in the assay with Caov-3 cells of 280 nM.
`CNC(=O)N1N=C(c2ccc(-c3cccnc3C(F)(F)F)cc2)c2cc(OC)c(OC)cc2CC1C` (racemic) [Example 48, (±)-7,8-dimethoxy-N,4-dimethyl-1-{4-[2-(trifluoromethyl)pyridin-3-yl]phenyl}-4,5-dihydro-3H-2,3-benzodiazepine-3-carboxamide]: the IC50 at BRD4 (BD1) is 110 nM; with MOLM-13 cells, 190 nM; in the assay with MV4-11 cells it was 220 nM; with LOX-IMVI cells, 650 nM; with MOLP-8 cells, 250 nM; in the assay on KMS-12-PE cells, 260 nM. In the assay on Caov-3 cells, the half-maximal inhibitory concentration (IC50) turned out to be 470 nM.
In the case of `CNC(=O)N1N=C(c2ccc(-c3c(C)nn(C)c3C)cc2)c2cc(OC)c(OC)cc2CC1C` (racemic) [Example 51, (±)-7,8-dimethoxy-N,4-dimethyl-1-[4-(1,3,5-trimethyl-1H-pyrazol-4-yl)phenyl]-4,5-dihydro-3H-2,3-benzodiazepine-3-carboxamide], the half-maximal inhibitory concentration (IC50) is 30 nM on BRD4 (BD1); 210 nM in the assay on MOLM-13 cells; 120 nM with MV4-11 cells; 350 nM in the assay with LOX-IMVI cells; 120 nM in the assay on MOLP-8 cells; 90 nM with KMS-12-PE cells. Further, in the assay on Caov-3 cells, the IC50 is 280 nM.
In the case of `CNC(=O)N1N=C(c2ccc(-c3cnoc3)cc2)c2cc(OC)c(OC)cc2CC1C` (racemic) [Example 52, (±)-1-[4-(isoxazol-4-yl)phenyl]-7,8-dimethoxy-N-dimethyl-4,5-dihydro-3H-2,3-benzodiazepine-3-carboxamide], the 50% inhibitory concentration (IC50) on BRD4 (BD1) was 50 nM; in the assay on MOLM-13 cells, 240 nM; with MV4-11 cells, 140 nM; with LOX-IMVI cells, 450 nM; in the assay on MOLP-8 cells, 150 nM; with KMS-12-PE cells, 130 nM. It took 350 nM to reach half-maximal inhibition with Caov-3 cells (IC50).
Take `CNC(=O)N1N=C(c2ccc(-c3cccc(NS(C)(=O)=O)c3)cc2)c2cc(OC)c(OC)cc2CC1C` (racemic) [Example 71, (±)-7,8-dimethoxy-N,4-dimethyl-1-{3′-[(methylsulphonyl)amino]biphenyl-4-yl}-4,5-dihydro-3H-2,3-benzodiazepine-3-carboxamide]: the half-maximal inhibitory concentration (IC50) on BRD4 (BD1) was 40 nM; in the assay on MOLM-13 cells, 250 nM; in the assay on MV4-11 cells it was 50 nM; in the assay with LOX-IMVI cells, 150 nM; in the assay on MOLP-8 cells, 90 nM; in the assay on KMS-12-PE cells it was 80 nM. In the assay on Caov-3 cells, this molecule gave an IC50 of 150 nM.
Consider `CNC(=O)N1N=C(c2ccc(-c3cccc(C(=O)N4CCCC4)c3)cc2)c2cc(OC)c(OC)cc2CC1C` (racemic) [Example 96, (±)-7,8-dimethoxy-N,4-dimethyl-1-[3′-(pyrrolidin-1-ylcarbonyl)biphenyl-4-yl]-4,5-dihydro-3H-2,3-benzodiazepine-3-carboxamide], for which the 50% inhibitory concentration (IC50) stood at 40 nM on BRD4 (BD1); 250 nM with MOLM-13 cells; 70 nM with MV4-11 cells; 220 nM with LOX-IMVI cells; 90 nM in the assay on MOLP-8 cells; 70 nM in the assay with KMS-12-PE cells. Besides, inhibition in the assay with Caov-3 cells was half-maximal at 170 nM (IC50).
For `CNC(=O)N1N=C(c2ccc(N3CCN(C)CC3)cc2)c2cc(OC)c(OC)cc2CC1C` (racemic) [Example 127, (±)-7,8-dimethoxy-N,4-dimethyl-1-[4-(4-methylpiperazin-1-yl)phenyl]-4,5-dihydro-3H-2,3-benzodiazepine-3-carboxamide], the half-maximal inhibitory concentration (IC50) worked out at 80 nM at BRD4 (BD1); 180 nM in the assay with MOLM-13 cells; 120 nM in the assay with MV4-11 cells; 250 nM in the assay on LOX-IMVI cells; 90 nM in the assay on MOLP-8 cells; 90 nM in the assay with KMS-12-PE cells. The same molecule returned an IC50 with Caov-3 cells of 240 nM.
